Test results as given in patent US7482027B2, “Composition for the prevention or treatment of diseases associated with angiogenesis” (AngioLab, Inc., priority 2005, dated 2009).

Tested on: HUVEC tube formation
Test: HUVEC tube formation inhibition assay
Type: cell-based, Human
Set-up: key to Tube formation inhibition: −: no inhibition of tube formation; +/−: rare inhibition of tube formation; +: light inhibition of tube formation and slight tube cleavage; ++: significant inhibition of tube formation and heavy tube cleavage; +++: no tube formation
Conditions: 50 μg/ml; for Tube formation inhibition: TABLE 2, HUVEC on Matrigel, 18 hours; for Inhibition of HUVEC tube formation (in words): text summary of TABLES 1 and 2
Experimental: Human umbilical vein endothelial cells (HUVECs) were isolated from freshly obtained cords after cesarean section according to Grants' method (Grants D S et al., Cell, 58, pp 923-943, 1989). The isolated HUVECs were grown in culture media comprising M-199 (Gibco BRL, 31100-035), 10% FBS, 50 μg/ml ECGS (Endothelial cell growth supplement, Sigma E2795), and 50 μg/ml heparin (Sigma H3149).
HUVECs isolated in REFERENCE EXAMPLE 1 were cultured within passage 5, and then were divided into 20,000 to 50,000 cells per well of 48 well plate coated with, Matrigel (BD Biosciences, Bedford, Mass.). Crude extracts, non-polar solvent extracts, or fractions of C. officinale of EXAMPLES 1 to 4 were added to the above HUVEC culture well at the concentration of 50 μg/ml, respectively, and DMSO was added as a control. They were grown with culture media of the above REFERENCE EXAMPLE 1.
After HUVECs were further incubated at 37° C. for 18 hours, tube formation was observed using microscope. The results were summarized in TABLES 1 and 2 (−: no inhibition of tube formation, +/− rare inhibition of tube formation, +: light inhibition of tube formation and slight tube cleavage, ++: significant inhibition of tube formation and heavy tube cleavage, +++: no tube formation).

| SMILES | Tube formation inhibition | Inhibition of HUVEC tube formation (in words) |
| --- | --- | --- |
| CCCCC1OC(=O)c2c(O)cccc21 (single isomer, unassigned) [AS44-C-2-C-b-III, 3-butyl-7-hydroxyphthalide] | +++ | strongly inhibited HUVEC tube formation |
| C=CC(O)C#CC#CC(O)C=C (single isomer, unassigned) [AS44-C-2-D-b-IV, 1,9-decadiene-4,6-diyne-3,8-diol] | +++ | strongly inhibited HUVEC tube formation |
